# Laboratory results as given in US8193200B2, “Antagonists of A2B adenosine receptors for treatment of inflammatory bowel disease” (University of Virginia Patent Foundation, priority 2007, dated 2012).
# What was measured:
# [1] = test system: C57BL/6 mice with DSS-induced colitis; test: DSS-induced colitis: clinical and histological scoring, colon weight and length; format: in vivo, mouse; details: for Total Lesion Score (histological score): score range 0-11, DSS 9.1 ± 2.1
# Method: Colitis was induced in male C57BL/6 mice by oral administration of DSS (molecular wt. 50000; ICN Biomedicals, Aurora, Ohio) at 3% (wt/vol) in tap water ad libitum for 6 days. Age-matched male wild-type C57BL6 mice receiving tap water served as controls. Mice were observed daily and evaluated for changes in body weight and development of clinical symptoms. Mice were given ATL-801 10 mg/Kg diet approximately 20 μg/day/mice) during the administration of DSS.
# Assessment of body weights, stool consistency, and the presence of occult/gross blood by a guaic test (Hemoccult Sensa; Beckman Coulter, Fullerton, Calif.) were performed daily for each mouse. Colitis was quantified with a clinical and histological score, as described by Cooper, et. al. Clinical score was based on weight loss, stool consistency, and fecal blood (score range 0-12). Histological scoring was performed based on three variables, extent of inflammatory infiltrate, mucosal ulcers and severity of crypt (score range 0-11). IL-10^−/− mouse colon histological scoring (ranging from 0 to 4) was performed as described by Berg, et. al. to assess intestinal lesions and their severity.
# [2] = target: T1, A2b receptor (Homo sapiens, UniProt P29275); test: cAMP measurement in adenosine-stimulated T84 cells; format: cell-based; details: T84 monolayers, adenosine 100 μM, ATL-801 100 μM; unstimulated 1.7±0.05, adenosine alone 4.7±0.66
# T1 construct: endogenous in cells; host or cells: T84 cells
# T1 sequence (P29275 1-332): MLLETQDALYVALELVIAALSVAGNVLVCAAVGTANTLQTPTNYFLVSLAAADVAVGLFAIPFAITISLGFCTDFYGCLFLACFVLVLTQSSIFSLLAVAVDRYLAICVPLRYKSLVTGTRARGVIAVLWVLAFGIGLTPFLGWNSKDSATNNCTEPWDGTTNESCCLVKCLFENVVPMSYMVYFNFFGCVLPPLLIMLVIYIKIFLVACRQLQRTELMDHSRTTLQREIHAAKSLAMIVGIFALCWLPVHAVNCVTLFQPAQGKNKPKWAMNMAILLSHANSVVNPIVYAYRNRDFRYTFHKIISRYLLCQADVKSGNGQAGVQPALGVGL
# Method: T84 cells were stimulated with adenosine (100 μM) or forskolin (10 μM) for 7 min, with or without ATL-801 (100 μM). Total cell lysates were processed in the presence of IBMX (phosphodiesterase inhibitor). cAMP levels were measured in whole cell lysates using a competitive cAMP immunoassay kit (Applied Biosystems, Bedford, Mass.) according to the manufacturer's instructions. Luminescence was read with a Luminoscan Ascent plate reader (Thermo Labsystems, Needham Heights, Mass.).
# [3] = test system: colonic crypt epithelial cells; test: ki67 proliferation and TUNEL apoptosis staining, IL-10-/- model; format: in vivo, mouse; details: IL-10-/- mice, piroxicam+ATL-801
# Method: Apoptosis: Apoptotic cells were determined in colonic crypts of the mice that received ATL-801. Apoptotic cells were identified by fluorescent double staining using caspase-3 and terminal deoxyuridine nick-end labeling (TUNEL) as a secondary method to detect apoptosis. After deparaffinization and hydration, paraffin sections of colon were retrieved for antigens in a pressure cooker with sodium citrate (pH 6.0, 10 mM) for 10 min. After cooling, the sections were quenched in 3% H2O2 in methanol and then blocked with normal goat serum. Caspase-3 was detected with rabbit anti-cleaved-caspase-3 IgG overnight at 4° C. followed by a labeled streptavidin-biotin (LSAB) staining method consisting of successive application of secondary antibody-streptavidin, biotin-horseradish peroxidase, and cyanine-3 tyramide. TUNEL immunohistochemistry was performed using the in situ cell death detection kit, fluorescein, as described by the manufacturer (Roche Applied Science, Indianapolis, Ind.). For IL-10 model, frozen sections were used to stain cleaved caspase 3 and TUNEL. Nuclei were attained by Hoechst to count total crypt cell number. The apoptotic index for both morphologically defined apoptotic cells and fluorescent staining with caspase-3 was calculated as the number of apoptotic cells per crypt. […]
# [4] = target: T2, A2b receptor (Mus musculus, UniProt Q60614); test: Ussing chamber Isc (chloride secretion) in murine colonic mucosal stripping; details: mouse colonic mucosa
# T2 construct: Murine colonic mucosal stripping from the distal colon was mounted on Ussing chamber; from tissue; host or cells: mouse distal colon mucosa, stripped of external muscle
# T2 sequence (Q60614 1-332): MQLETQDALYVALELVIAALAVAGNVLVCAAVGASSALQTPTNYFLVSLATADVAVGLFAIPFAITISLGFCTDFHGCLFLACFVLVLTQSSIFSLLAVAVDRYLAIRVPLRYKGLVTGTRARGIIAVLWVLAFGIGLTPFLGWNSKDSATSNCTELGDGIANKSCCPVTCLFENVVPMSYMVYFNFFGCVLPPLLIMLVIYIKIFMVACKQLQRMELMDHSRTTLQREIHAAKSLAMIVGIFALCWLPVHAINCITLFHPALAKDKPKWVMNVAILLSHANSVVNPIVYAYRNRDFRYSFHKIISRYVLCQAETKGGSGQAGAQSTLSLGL
# Method: Electrophysiologic studies were performed as described previously Mice were euthanized by CO2/hypothermia. The colon was removed and opened along the mesenteric border. The colon was then stripped of its external muscle by blunt dissection. A of mucosa from distal colon was used for Using chamber studies. After a sustained baseline Isc, mucosal layers were stimulated with adenosine (100 μM) and forskolin (FSK 10 μM). Antagonist was added to both bathing solutions before stimulating with adenosine.
smiles,measurement,setting,value
CCCn1c(=O)n(C2CC2)c(=O)c2[nH]c(-c3ccc(N(CC)C(=O)c4cccnc4)nc3)nc21 [ATL-801],Ulceration (histological assessment),"[1]; 3% DSS 6 days + ATL 10 mg/Kg, DSS 2.6 ± 0.6",1.0 ± 1
same,Crypt Damage (histological assessment),"[1]; 3% DSS 6 days + ATL 10 mg/Kg, DSS 2.8 ± 1.5",1.9 ± 0.6
same,Inflammation (histological assessment),"[1]; 3% DSS 6 days + ATL 10 mg/Kg, DSS 3.7 ± 0.2",1.2 ± 0.2
same,Total Lesion Score (histological score),[1]; 3% DSS 6 days + ATL 10 mg/Kg,4.1 ± 1.8
same,Total Lesion Score (histological score),"[1]; 3% DSS 6 days + ATL 10 mg/Kg, listed as antagonist",4.1±1.8
same,clinical score (clinical disease activity score),"[1]; DSS 3% 6 days + ATL-801 10 mg/Kg in diet, score range 0-12, DSS alone 9.4±1.1",4.4±1.5
same,colon length,"[1]; DSS 6 days + antagonist 10 mg/Kg, DSS alone 4.5±0.26 cm",6.04±0.16 cm
same,colon weight,"[1]; DSS + A2b antagonist, colon with solid stool pellets, DSS alone 0.26±0.03 g",0.48 ± 0.03 g
same,stool consistency,"[1]; DSS + A2b receptor antagonist, DSS-fed mice had watery diarrhea",solid stools
same,"colon length, group not administered DSS","[1]; antagonist without DSS, vehicle 6.5±0.25",7.5 cm
same,"adverse effects on clinical score, ATL-801 alone","[1]; mice given ATL-801 alone, no DSS",did not show any adverse affects on clinical score
same,"histological signs of inflammation, water control group receiving antagonist",[1]; no DSS,not detected
same,"adenosine mediated cAMP levels, adenosine+ATL-801",[2],0.2±0.06 pmoles/10^6 cells
same,TUNEL positive cells out of total (around 500) number of cells counted in each crypt,"[3]; control 4.7±1.5, piroxicam 4.3±2.3",10±1.0
same,"proliferation index, ki67 positive staining","[3]; control 8.0±0.7, piroxicam alone 28.8±2.8",18.5±1.4
same,"ΔIsc, ATL-801+Adenosine","[4]; ATL-801 100 μM before adenosine 100 μM, adenosine alone 7.9 μA",1.9 μA
same,"ΔIsc, ATL-801+FSK","[4]; ATL-801 100 μM, forskolin 10 μM",10 μA
